Assay results reported in patent publication US8258306B2, “Glycine transporter-1 inhibitors” (Amgen Inc., priority 2007, dated 2012).
Where a name gives a salt, the structure may show the parent alone.

Target: T1, human glycine transporter type 1 (Gly-T1) (Homo sapiens, UniProt P48067)
T1 construct: JAR) cells endogenously expressing human glycine transporter type 1 (Gly-T1); endogenous in cells; host or cells: JAR human placental choriocarcinoma cells
T1 sequence (P48067 1-706): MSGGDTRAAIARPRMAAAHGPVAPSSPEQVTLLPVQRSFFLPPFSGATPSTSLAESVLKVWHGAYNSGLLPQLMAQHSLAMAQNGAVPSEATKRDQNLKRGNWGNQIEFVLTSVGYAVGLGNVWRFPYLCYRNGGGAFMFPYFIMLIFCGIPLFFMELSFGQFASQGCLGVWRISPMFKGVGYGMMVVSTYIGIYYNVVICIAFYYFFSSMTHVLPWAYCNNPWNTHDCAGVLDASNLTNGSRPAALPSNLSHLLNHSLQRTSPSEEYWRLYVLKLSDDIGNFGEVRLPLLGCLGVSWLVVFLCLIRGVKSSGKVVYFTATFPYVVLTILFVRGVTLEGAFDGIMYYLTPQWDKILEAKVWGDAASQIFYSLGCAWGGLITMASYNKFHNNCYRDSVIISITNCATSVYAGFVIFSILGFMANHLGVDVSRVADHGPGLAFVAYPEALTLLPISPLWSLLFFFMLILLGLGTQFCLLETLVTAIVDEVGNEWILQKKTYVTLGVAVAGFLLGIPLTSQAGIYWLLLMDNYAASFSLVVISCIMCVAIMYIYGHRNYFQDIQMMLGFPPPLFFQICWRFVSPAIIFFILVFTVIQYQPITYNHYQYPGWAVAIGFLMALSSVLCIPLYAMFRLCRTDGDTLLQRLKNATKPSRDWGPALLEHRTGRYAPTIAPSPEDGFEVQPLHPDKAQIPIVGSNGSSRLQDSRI
Assay: Glycine Transporter 1 (GlyT1) Uptake Assay, in vitro
Type: cell-based
Settings: inhibition of [14C] glycine uptake (5 μM) in JAR cells endogenously expressing GlyT1; approximate values
Experimental: This cell-based assay measures the ability of test compounds to inhibit the uptake of glycine by the glycine transporter type 1. Human placental choriocarcinoma (JAR) cells endogenously expressing human glycine transporter type 1 (Gly-T1) were used for this assay. For uptake assays, JAR cells were cultured in 96-well cytostar T scintillating microplates (Amersham Biosciences) in RPMI 1640 medium containing 10% fetal bovine serum in the presence of penicillin (100 μg/ml) and streptomycin (100 μg/ml). Cells were plated at a density of 4×10^4 cells/well and grown at 37° C. in a humidified atmosphere of 5% CO2 for 24 h.
Culture medium was removed from Cytostar plate and JAR cells were incubated with 30 μl of Uptake buffer (120 mM NaCl, 2 mM KCl, 1 mM CaCl2, 1 mM MgCl2, 10 mM Hepes, 5 mM alanine, pH 7.5) with or without compound for 5 min. Then 30 μl of [^14C] glycine (101 mCi/mmol, obtained from Perkin Elmer) diluted in Uptake buffer was added to each well to give a final concentration of 5 μM. After incubation at room temperature for the desired time usually 1-2 h, sealed 96-well Cytostar plates were counted on a TopCount (Packard). Nonspecific uptake of [^14C] glycine was determined in the presence of 10 μM cold ALX-5407 (Sigma).
IC50 curves were generated from the raw data collected from the TopCount and fitted with a four-parameter logistic equation using in-house data analysis tool, Activity Base.

Compound | IC50 [nM]
C[C@@H]1CN(C2CCCCc3ccccc32)CCN1CC(=O)O (stereo partly drawn) [Cpd I-1, 2-((R)-2-methyl-4-(6,7,8,9-tetrahydro-5H-benzo[7]annulen-5-yl)-piperazin-1-yl)acetic acid] | 258
C[C@@H]1CN(C2CCc3ccc(Br)cc32)CCN1CC(=O)O (stereo partly drawn) [Cpd I-3, 2-((R)-4-(6-bromo-2,3-dihydro-1H-inden-1-yl)-2-methyl-piperazin-1-yl)acetic acid] | 1010
C[C@@H]1CN(C2c3ccccc3CCc3ccccc32)CCN1CC(=O)O [Cpd I-5] | 147
C[C@@H]1CN(C2CCCCC2c2ccccc2)CCN1CC(=O)O (stereo partly drawn) [Cpd I-6, 2-((R)-2-methyl-4-(2-phenylcyclohexyl)-piperazin-1-yl)acetic acid dihydrochloride] | 1130
O=C(O)CN1CCC(N(c2ccccc2)c2cccc(C(F)(F)F)c2)CC1 [Cpd I-7, 2-(4-(phenyl(3-(trifluoromethyl)-phenyl)amino)piperidin-1-yl)-acetic acid] | 393
O=C(O)CN1CCC(C(c2ccccc2)c2ccccc2)CC1 [Cpd I-8, 2-(4-benzhydrylpiperidin-1-yl)acetic acid] | 536
O=C(O)CN1CCN(c2cccc3ccccc23)CC1 [Cpd I-9, 2-(4-naphth-1-ylpiperazin-1-yl)acetic acid] | > 10000
C[C@@H]1CN(c2cccc3ccccc23)CCN1CC(=O)O [Cpd I-10, (R)-2-(2-methyl-4-naphth-1-ylpiperazin-1-yl)acetic acid] | 953
O=C(O)CN1CCN(c2c3ccccc3cc3ccccc23)CC1 [Cpd I-11, 2-(4-anthracen-9-ylpiperazin-1-yl)acetic acid] | > 10000
C[C@@H]1CN(c2c3ccccc3cc3ccccc23)CCN1CC(=O)O [Cpd I-12, (R)-2-(4-anthracen-9-yl-2-methyl-piperazin-1-yl)acetic acid] | 687
O=C(O)CN1CCN(C2(c3ccccc3)CCCCC2)CC1 [Cpd I-13, 2-(4-(1-phenylcyclohexyl)piperazin-1-yl)acetic acid] | > 10000
C[C@@H]1CN(C2(c3ccccc3)CCCCC2)CCN1CC(=O)O [Cpd I-14, (R)-2-(2-methyl-4-(1-phenyl-cyclohexyl)-piperazin-1-yl)acetic acid] | 1530
CC1CC(C(c2ccccc2)c2ccccc2)CCN1CC(=O)O (centres unmarked) [Cpd I-15, 2-(4-benzhydryl-2-methyl-piperidin-1-yl)acetic acid] | 52
O=C(O)CN1CCC(C(c2ccccc2)c2ccccc2C(F)(F)F)CC1 (centres unmarked) [Cpd I-16, 2-(4-(phenyl(2-(trifluoromethyl)-phenyl)-methyl)piperidin-1-yl)acetic acid] | 3520
O=C(O)CN1CCC(N(c2ccccc2)c2ccc(C(F)(F)F)cc2)CC1 [Cpd I-22, 2-(4-(phenyl(4-(trifluoromethyl)phenyl)-amino)piperidin-1-yl)acetic acid] | 129
C[C@@H]1CN(C2(c3ccc(Cl)cc3)CCCCC2)CCN1CC(=O)O [Cpd I-26, (R)-2-(4-(1-(4-chlorophenyl)cyclohexyl)-2-methylpiperazin-1-yl)acetic acid] | 101
O=C(O)CN1CCC(C2c3ccccc3-c3ccccc32)CC1 [Cpd I-28, 2-(4-(9H-fluoren-9-yl)piperidin-1-yl)acetic acid] | > 10000
O=C(O)CN1CCC(C2c3ccccc3Oc3ccccc32)CC1 [Cpd I-30, 2-(4-(9H-xanthen-9-yl)piperidin-1-yl)acetic acid] | 5320
O=C(O)CN1CCCC(C(c2ccccc2)c2ccc(C(F)(F)F)cc2)C1 (centres unmarked) [Cpd II-1, 2-(3-(phenyl(4-(trifluoromethyl)-phenyl)methyl)piperidin-1-yl)acetic acid] | 562
O=C(O)CN1CCCC(N(c2ccccc2)c2ccc(C(F)(F)F)cc2)C1 (centres unmarked) [Cpd II-3, 2-(3-(phenyl(4-(trifluoromethyl)-phenyl)amino)piperidin-1-yl)acetic acid] | 296
O=C(O)CN1CCCC(N(c2ccccc2)c2cccc(C(F)(F)F)c2)C1 (centres unmarked) [Cpd II-4, 2-(3-(phenyl(3-(trifluoromethyl)-phenyl)amino)piperidin-1-yl)acetic acid] | > 2000
O=C(O)CN1CCC(N(c2ccccc2)c2ccc(C(F)(F)F)cc2)C1 (centres unmarked) [Cpd II-5, 2-(3-(phenyl(4-(trifluoromethyl)-phenyl)amino)pyrrolidin-1-yl)acetic acid] | 18
O=C(O)CN1CCC(N(c2ccccc2)c2cccc(-c3cccnc3)c2)C1 (centres unmarked) [Cpd II-10, 2-(3-(phenyl(3-(pyridin-3-yl)-phenyl)amino)pyrrolidin-1-yl)acetic acid] | 14
